The test system of series [1] is Pigweed (redroot) (Amaranthus retroflexus). The series can be described thus: Preemergence herbicidal activity, soil spray. The format is in vivo. To be noted: Amaranthus retroflexus, pre-emergence, 504 h, Table 5, visual score after 3 weeks, read-out: Pre-emergent % control AMARE; for pest or weed control at 560 ppm: rate 560 ppm; for pest or weed control at 140 ppm: rate 140 ppm. In a few lines: (§1)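 Soil spray, preemergence: loam/sand 70:30 (pH ~8.1, OM ~1.5%) → seeded pots treated on surface; compound in acetone/DMSO 97:3, serially diluted into water/Tween 155 (99.9:0.1). Controls got aqueous carrier only. Greenhouse: ~15 h light, 23-29° C day / 22-28° C night.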

Series [2] has as its system Crabgrass(large) (Digitaria sanguinalis). Nature of the series: Preemergence herbicidal activity, soil spray. Format: in vivo. To be noted: Digitaria sanguinalis, pre-emergence, 504 h, Table 5, visual score after 3 weeks, read-out: Pre-emergent % control DIGSA; for pest or weed control at 560 ppm: rate 560 ppm; for pest or weed control at 140 ppm: rate 140 ppm. Put shortly:
as §1

Series [3] relates to Lambsquarter (Chenopodium album). Nature of the series: Preemergence herbicidal activity, soil spray. The format is in vivo. To be noted: Chenopodium album, pre-emergence, 504 h, Table 5, visual score after 3 weeks, read-out: Pre-emergent % control CHEAL; for pest or weed control at 560 ppm: rate 560 ppm, 100 complete kill or no germination; for pest or weed control at 140 ppm: rate 140 ppm. In a few lines:
as §1

For series [4], the system named is Giant Foxtail (Setaria faberi). Nature of the series: Preemergence herbicidal activity, soil spray. To be noted: Setaria faberi, pre-emergence, 504 h, Table 5, visual score after 3 weeks, read-out: Pre-emergent % control SETFA; for pest or weed control at 560 ppm: rate 560 ppm; for pest or weed control at 140 ppm: rate 140 ppm. Format: in vivo. Put shortly:
as §1

The subject of series [5] is Wheat(var. Merica) (Triticum aestivum). Nature of the series: Postemergence herbicidal activity, selectivity to wheat. To be noted: post-emergence, 336 h, Table 3, rate 62.5 (unit inferred), crop injury, read-out: Post-emergent % control TRZAS. Format: in vivo. The protocol: Seeds of the desired test plant species were planted in Grace-Sierra MetroMix® 306 planting mixture, which typically has a pH of 6.0 to 6.8 and an organic matter content of about 30 percent, in plastic pots with a surface area of 64 square centimeters. When required to ensure good germination and healthy plants, a fungicide treatment and/or other chemical or physical treatment was applied. The plants were grown for 7-21 days in a greenhouse with an approximate 15 hr photoperiod which was maintained at about 23-29° C. during the day and 22-28° C. during the night. Nutrients and water were added on a regular basis and supplemental lighting was provided with overhead metal halide 1000-Watt lamps as necessary. The plants were employed for testing when they reached the first or second true leaf stage. A weighed amount, determined by the highest rate to be tested, of each test compound was placed in a 20 mL glass vial and was dissolved in 4 mL of a 97:3 v/v (volume/volume) mixture of acetone and dimethyl sulfoxide (DMSO) to obtain concentrated stock solutions. […] The concentrated stock solutions obtained were diluted with an aqueous mixture containing acetone, water, isopropyl alcohol, DMSO, At plus 411 F crop oil concentrate, and Triton X-155 surfactant in a 48.5:39:10:1.5:1.0:0.02 v/v ratio to obtain spray solutions of known concentration. The solutions containing the highest concentration to be tested were prepared by diluting 2 mL aliquots of the stock solution with 13 mL of the mixture and lower concentrations were prepared by serial dilution of the stock solution. Approximately 1.5 mL aliquots of each solution of known concentration were sprayed evenly onto each of the test plant pots using a DeVilbiss atomizer driven by compressed air pressure of […] (140 to 280 kiloPascals) to obtain thorough coverage of each plant. Control plants were sprayed in the same manner with the aqueous mixture. In this test an application rate of 1 ppm results in the application of approximately 1 g/Ha. The treated plants and control plants were placed in a greenhouse as described above and watered by sub-irrigation to prevent wash-off of the test compounds. After 2 weeks the condition of the test plants as compared with that of the untreated plants was determined visually and scored on a scale of 0 to 100 percent where 0 corresponds to no injury and 100 corresponds to complete kill.

Series [6] has as its system Barnyardgrass (Echinochloa crus-galli). The series can be described thus: Postemergence herbicidal activity, greenhouse spray. Format: in vivo. To be noted: Echinochloa crus-galli, post-emergence, 336 h, visual score after 2 weeks, read-out: Post-emergent % control ECHCG; for pest or weed control at 250 ppm / pest or weed control at 500 ppm: Table 1; for pest or weed control at 250 ppm: rate 250 ppm; for pest or weed control at 500 ppm: rate 500 ppm; for pest or weed control at 125 ppm: Table 2, rate 125 ppm. In a few lines: (§2)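 Seedlings were raised under greenhouse conditions for 7-21 days and used at the first or second true leaf stage. Each was sprayed evenly with about 1.5 mL of test solution by atomizer at […]. Treated pots then returned to the greenhouse, watered from below to avoid wash-off.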

Series [7] deals with Pigweed (redroot) (Amaranthus retroflexus). Described as above. The format is in vivo. To be noted: Amaranthus retroflexus, post-emergence, 336 h; Table 3; rate 62.5 (unit inferred); visual score after 2 weeks; read-out: Post-emergent % control AMARE. In a few lines:
as §2

For series [8], the system named is Yellow nutsedge (Cyperus esculentus). Described as above. The format is in vivo. To be noted: Cyperus, post-emergence, 336 h, visual score after 2 weeks, read-out: Post-emergent % control CYPES; for pest or weed control at 250 ppm / pest or weed control at 500 ppm: Table 1; for pest or weed control at 250 ppm: rate 250 ppm; for pest or weed control at 500 ppm: rate 500 ppm; for pest or weed control at 125 ppm: Table 2, rate 125 ppm. Put shortly: as §2

Series [9] deals with Lambsquarter (Chenopodium album). The series is described as above. The format is in vivo. To be noted: Chenopodium album, post-emergence, 336 h, visual score after 2 weeks, read-out: Post-emergent % control CHEAL; for pest or weed control at 250 ppm / pest or weed control at 500 ppm: Table 1; for pest or weed control at 250 ppm: rate 250 ppm; for pest or weed control at 500 ppm: rate 500 ppm; for pest or weed control at 125 ppm: Table 2, rate 125 ppm. Put shortly:
as §2

Series [10] deals with Cocklebur (Xanthium strumarium). The series is described as above. The format is in vivo. To be noted: Xanthium strumarium, post-emergence, 336 h, visual score after 2 weeks, read-out: Post-emergent % control XANST; for pest or weed control at 250 ppm / pest or weed control at 500 ppm: Table 1; for pest or weed control at 250 ppm: rate 250 ppm; for pest or weed control at 500 ppm: rate 500 ppm, 0 no injury, 100 complete kill; for pest or weed control at 125 ppm: Table 2, rate 125 ppm. Put shortly:
as §2

Turning to `COC(=O)c1nc(-c2ccc(C)cc2)cc(N)c1Cl` [Compound 20, Methyl 4-amino-3-chloro-6-(4-methylphenyl)pyridine-2-carboxylate], the melting point was in the range of 111 to 113 °C. Besides, the pest or weed control at 560 ppm in series [1] came out at 100%. Besides, the pest or weed control at 560 ppm in [2] worked out at 100%. For the same compound, the pest or weed control at 560 ppm in series [3] turned out to be 100%. Moreover, the pest or weed control at 560 ppm in [4] was 100%. The pest or weed control at 62.5 µg/mL in series [5] was 10%. Moreover, in series [6], the pest or weed control at 250 ppm came out at 70%. Also, in series [7], the pest or weed control at 62.5 µg/mL stood at 100%. Moreover, the pest or weed control at 250 ppm in [8] was 50%. The pest or weed control at 250 ppm in series [9] amounted to 100%. Moreover, the pest or weed control at 250 ppm in [10] is 100%.
With `COC(=O)c1nc(-c2ccc3c(c2)OCO3)cc(N)c1Cl` [Compound 29, Methyl 4-amino-3-chloro-6-(3,4-methylenedioxyphenyl)pyridine-2-carboxylate], the melting point amounted to 184 °C. The pest or weed control at 560 ppm in series [1] was determined as 95%. Further, the pest or weed control at 560 ppm in series [2] stood at 100%. For the same compound, the pest or weed control at 560 ppm in [3] worked out at 100%. In series [4], the pest or weed control at 560 ppm was 90%. Further, in [5], the pest or weed control at 62.5 µg/mL turned out to be 10%. Also, the pest or weed control at 500 ppm in series [6] amounted to 95%. For the same compound, the pest or weed control at 62.5 µg/mL in series [7] came out at 90%. For the same compound, the pest or weed control at 500 ppm in [8] turned out to be 80%. Further, in series [9], the pest or weed control at 500 ppm was 100%. Moreover, the pest or weed control at 500 ppm in series [10] was found to be 100%.
`COC(=O)c1nc(-c2ccc(Cl)cc2F)cc(NC(C)=O)c1Cl` [Compound 52, Methyl 4-acetamido-3-chloro-6-(4-chloro-2-fluorophenyl)pyridine-2-carboxylate] returned a melting point of 134 to 135 °C. Further, the pest or weed control at 140 ppm in series [1] amounted to 100%. Further, the pest or weed control at 140 ppm in series [2] came out at 100%. Also, the pest or weed control at 140 ppm in series [3] was 100%. For the same compound, the pest or weed control at 140 ppm in series [4] turned out to be 95%. Moreover, the pest or weed control at 62.5 µg/mL in [5] is 10%. Also, the pest or weed control at 500 ppm in series [6] was determined as 90%. Further, the pest or weed control at 62.5 µg/mL in series [7] was 70%. The pest or weed control at 500 ppm in [8] worked out at 40%. In addition, the pest or weed control at 500 ppm in [9] was determined as 100%. The pest or weed control at 500 ppm in series [10] amounted to 100%.
`Nc1c(F)c(-c2ccc3c(c2)CCO3)nc(C(=O)O)c1Cl` [Compound 197, 4-Amino-3-chloro-5-fluoro-6-(2,3-dihydro-5-benzofuranyl)pyridine-2-carboxylic acid] showed a melting point of 171 °C. For the same compound, the pest or weed control at 560 ppm in series [1] was 100%. Moreover, the pest or weed control at 560 ppm in series [2] was determined as 100%. In series [3], the pest or weed control at 560 ppm came to 100%. The pest or weed control at 560 ppm in series [4] is 100%. For the same compound, in series [6], the pest or weed control at 250 ppm was determined as 90% and the pest or weed control at 125 ppm amounted to 85%. In series [8], the pest or weed control at 250 ppm was 95% and the pest or weed control at 125 ppm is 85%. For the same compound, in series [9], the pest or weed control at 250 ppm turned out to be 100% and the pest or weed control at 125 ppm was 100%. In series [10], the pest or weed control at 250 ppm is 100% and the pest or weed control at 125 ppm was 100%.
In turn, `Nc1c(Cl)c(C(=O)O)nc(-c2ccc(Cl)cc2)c1Cl` [Compound 198, 4-Amino-3,5-dichloro-6-(4-chlorophenyl)pyridine-2-carboxylic acid] returned a melting point of 164 to 165 °C. The pest or weed control at 560 ppm in [1] is 100%. The pest or weed control at 560 ppm in [2] was determined as 80%. The pest or weed control at 560 ppm in series [3] was found to be 100%. Further, in [4], the pest or weed control at 560 ppm was determined as 90%. Besides, in [6], the pest or weed control at 500 ppm was found to be 90% and the pest or weed control at 125 ppm came to 70%. For the same compound, in [8], the pest or weed control at 500 ppm worked out at 90% and the pest or weed control at 125 ppm was 98%. Moreover, in series [9], the pest or weed control at 500 ppm amounted to 100% and the pest or weed control at 125 ppm worked out at 100%. Further, in series [10], the pest or weed control at 500 ppm worked out at 100% and the pest or weed control at 125 ppm amounted to 100%.
With `Nc1c(F)c(C(=O)O)nc(-c2ccccc2Cl)c1F` [Compound 202, 4-Amino-3,5-difluoro-6-(6-chlorophenyl)pyridine-2-carboxylic acid], the melting point was 166 to 167 °C (dec.). Also, in [1], the pest or weed control at 140 ppm is 100%. In addition, the pest or weed control at 140 ppm in [2] was determined as 100%. Moreover, the pest or weed control at 140 ppm in series [3] turned out to be 95%. Moreover, the pest or weed control at 140 ppm in series [4] came out at 95%. Also, in series [6], the pest or weed control at 500 ppm stood at 100% and the pest or weed control at 125 ppm was 70%. For the same compound, in [8], the pest or weed control at 500 ppm was 95% and the pest or weed control at 125 ppm came out at 80%. In series [9], the pest or weed control at 500 ppm was 100% and the pest or weed control at 125 ppm is 100%. Besides, in series [10], the pest or weed control at 500 ppm was found to be 100% and the pest or weed control at 125 ppm was 100%.
`Cc1ccc(-c2nc(C(=O)O)c(F)c(N)c2F)cc1` [Compound 203, 4-Amino-3,5-difluoro-6-(4-methylphenyl)pyridine-2-carboxylic acid] had a melting point of 144 to 145 °C. The pest or weed control at 140 ppm in series [1] turned out to be 100%. In series [2], the pest or weed control at 140 ppm is 100%. Besides, the pest or weed control at 140 ppm in series [3] was determined as 95%. Further, in series [4], the pest or weed control at 140 ppm was 85%. Also, the pest or weed control at 500 ppm in series [6] came to 95%. In addition, the pest or weed control at 500 ppm in series [8] amounted to 95%. Moreover, in series [9], the pest or weed control at 500 ppm came to 100%. Also, in series [10], the pest or weed control at 500 ppm was 100%.

A word on the melting point: it is the temperature of the solid-liquid transition.

(Values after US6784137B2, “6-aryl-4-aminopicolinates and their use as herbicides” (Dow AgroSciences LLC, priority 2001, dated 2004).)
